In one experiment the test system is influenza A virus. As to conditions: mouse, in vivo; cited from earlier work.
The test system of experiment [1] is wt NP. The format is biochemical.
Experiment [2] has as its target wt NP (Influenza A virus, UniProt P15682). The class given is biochemical.
Experiment [3] deals with monomeric wt NP (nucleoprotein of influenza A virus) (Influenza A virus, UniProt P15682). Put plainly: biochemical. The class given is binding.

The text below walks through data of publication PMC4548311 (Journal of Biomolecular Structure & Dynamics, 2014).

wt NP (Influenza A virus, UniProt P15682), sequence (P15682 whole entry, looked up): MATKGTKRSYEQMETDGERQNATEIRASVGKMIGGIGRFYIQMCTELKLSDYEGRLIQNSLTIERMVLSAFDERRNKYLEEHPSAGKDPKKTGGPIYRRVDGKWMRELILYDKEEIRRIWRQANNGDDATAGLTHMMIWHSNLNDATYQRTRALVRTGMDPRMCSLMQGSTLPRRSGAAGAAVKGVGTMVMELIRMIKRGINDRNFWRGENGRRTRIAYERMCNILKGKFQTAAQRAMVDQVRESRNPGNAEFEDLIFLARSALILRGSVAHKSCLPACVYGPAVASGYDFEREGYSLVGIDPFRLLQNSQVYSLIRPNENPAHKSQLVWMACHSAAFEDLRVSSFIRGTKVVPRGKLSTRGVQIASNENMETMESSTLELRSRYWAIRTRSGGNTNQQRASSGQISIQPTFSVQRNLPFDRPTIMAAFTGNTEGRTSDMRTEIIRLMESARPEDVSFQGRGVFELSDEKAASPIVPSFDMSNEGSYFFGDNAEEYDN
monomeric wt NP (nucleoprotein of influenza A virus), sequence (P15682 whole entry, looked up): as above

One may read the inhibition as the percentage by which the read-out fell short of the control. As to `COc1ccc2cc([C@H](C)C(=O)O)ccc2c1` [Naproxen, naproxen], in the experiment on influenza A virus, the “antiviral effects in mice” value is “antiviral effects” and the lung bleeding entry is given as “reduced lung bleeding”. Moreover, the “disruption of already assembled trimers” value in the experiment with wt NP [1] was “could not disrupt already assembled trimers”. In addition, at wt NP [2], the “apparent size of the NP–RNA complex” value is reported as 21–23 nm; the “effect on NP oligomerization into trimers–tetramers” value is listed as “stabilized the monomeric form”; the “effect on RNA-free self-association of NP” value was “stabilized monomeric NP and avoided trimers/tetramers formation”; the “effect on dimer formation” value is reported as “impeded dimer formation”. In addition, the “% Total inhibition” value in experiment [3] is recorded as 70 ± 7%. For the same compound, the inhibition at 1 µM in experiment [3] (read-out: % Inhibition at 1 µM) was 5%.
